From PubChem BioAssay AID504313 (Emory University Molecular Libraries Screening Center, 2011)
Active and inactive are the calls of the source. How the calls were made is not given here.

What follows are compounds tested against X-box-binding protein 1 (Homo sapiens) (UniProt P17861) (assay: inhibitors of XBP1 reporter signal, dose response, counter-screen, cell-based (AID 504313;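 further: CHO cells carrying an XBP1 reporter stimulated with tunicamycin; potency is for inhibition of the tunicamycin-induced reporter signal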)). Details: XBP1 reporter cell assay, percent of control.
With `COc1cc([C@@H]2c3cc4c(cc3[C@@H](O)[C@@H](CO)[C@@H]2CO)OCO4)cc(OC)c1O[Si](C)(C)C(C)(C)C` the IC50 was “inactive”. In the case of `O=C1c2ccc3c4c(ccc(c24)C(=O)N1c1cccc(O)c1)C(=O)N(c1cccc(O)c1)C3=O`, the IC50 is reported as “inactive”. In the case of `CCOc1ccc(/C=N/NC(=O)c2cc(-c3ccco3)nc3ccccc23)cc1`, the IC50 is reported as “inactive”. `C=C(C)C(=O)OC1(C(F)(F)F)Oc2cc(C)ccc2NC1=O` (configuration not stated) was tested, and the IC50 was “inactive”. `CC1(c2ccccc2)CC(C)(C)N2C(=O)/C(=C3\SC(=S)NC3=O)c3cccc1c32` (configuration not stated) was tested, and the IC50 was “inactive”. With `CCCN1C=CC(=C2C(=O)c3ccccc3C2=O)C=C1` the IC50 was “inactive”. `Cc1ccc(-c2nc(N)sc2-c2ccc(C)cc2)cc1` was tested, and the IC50 was > 10 µM (inactive). For `COC(=O)c1ccc2c(c1)C(C)(C)C(/C=C/c1ccc(O)cc1)=[N+]2C`, the IC50 was > 10 µM (inactive). With `CC(C)C[C@H](NC(=O)OC(C)(C)C)C(=O)N/N=C/C1=Cc2ccccc2OC1C` (some centres not stated) the IC50 was “inactive”. `CCOC(=O)CCS(=O)(=O)c1nc(-c2ccccc2)cc(C(F)(F)F)n1` was tested, and the IC50 was “inactive”. `O=[N+]([O-])c1ccc(S(=O)(=O)CC(CN2CCCCC2)N2CCCCC2)cc1` (configuration not stated) was tested, and the IC50 was “inactive”. In the case of `CCCCCCCC(=O)N/N=C/c1ccc(Br)cc1`, the IC50 is reported as 4.47 µM. For `CCOc1cccc(CN2CCN(c3cccc(C(F)(F)F)c3)CC2)c1O`, the IC50 was > 10 µM (inactive). `CCOc1cc(/C=C2/C(=O)ON=C2C)ccc1OCc1ccc(F)cc1` was tested, and the IC50 was > 10 µM (inactive). For `O=C1CC(c2ccccc2)CC(O)=C1C=Nc1cccc(Cl)c1` (configuration not stated), the IC50 was > 10 µM (inactive). With `COc1cc(/C=C(/C#N)c2nc3ccccc3[nH]2)ccc1OCC(=O)Nc1ccccc1C(C)C` the IC50 was “inactive”. `Cc1ccc(/C=N/N2C(=S)SC(C)(C)C2N(O)C(=O)Nc2ccc([N+](=O)[O-])cc2)cc1` (configuration not stated) showed an IC50 of 3.54 µM. For `CCCCCn1c(SCCC(C)C)nc2c1c(=O)[nH]c(=O)n2C`, the IC50 was “inactive”. `Cn1c(=O)c([N+](=O)[O-])c(Cl)c2ccccc21` was tested, and the IC50 was “inactive”. In the case of `CCc1ccc(C(=O)/C=C/c2ccc([N+](=O)[O-])o2)cc1`, the IC50 is reported as > 10 µM (inactive). With `O=C(Nc1cccc(Cl)c1Cl)c1cc(S(=O)(=O)NCCc2ccccc2)ccc1F` the IC50 was “inactive”. With `Cc1cccc(N2CCN(C(=O)CS(=O)(=O)Cc3nc(-c4ccccc4F)oc3C)CC2C)c1` (configuration not stated) the IC50 was > 10 µM (inactive). With `CC(=O)NCc1ccc(C(=O)CCl)s1` the IC50 was “inactive”. `CCC(NC(=O)Nc1nnc(C(F)(F)F)s1)(C(F)(F)F)C(F)(F)F` showed an IC50 of 2 µM. In the case of `CC(=O)C1=C(S(=O)(=O)c2ccc(C)cc2)CS(=O)(=O)C1`, the IC50 is reported as > 10 µM (inactive). With `CCOc1cc(S(=O)(=O)Nc2ccccc2CC)ccc1Cl` the IC50 was > 10 µM (inactive). In the case of `Cc1cc(C2=NNC(=NC3CC3)SC2)c(C)n1-c1ccccc1F`, the IC50 is reported as < 0.16 µM (inactive). In the case of `CCOc1cc(C)c(-c2onc(C(F)(F)F)c2-c2csc(C)n2)c(O)c1`, the IC50 is reported as “inactive”. `CCOC(=O)c1cnc(-n2nc(C)cc2C)nc1Nc1ccc(O)cc1` gave an IC50 of 1.26 µM. For `Cc1cc(C)n(-c2nc(N(c3ccccc3)c3ccccc3)nc(-n3nc(C)cc3C)n2)n1`, the IC50 was “inactive”. `O=S(=O)(Nc1cccc2c1CCCC2)c1cccc(C(F)(F)F)c1` was tested, and the IC50 was “inactive”. For `Cc1nc2ccccn2c1C(=O)N=Nc1c(O)n(CCC(C)C)c2ccccc12`, the IC50 was > 10 µM (inactive). With `O=C(NC1CCCCC1)C(c1ccc(F)cc1)N(Cc1ccccc1)C(=O)CN1C(=O)c2ccccc2S1(=O)=O` (configuration not stated) the IC50 was “inactive”. Work on `CC(C)(C)c1nnc(N/N=C/c2cc(Br)ccc2O)n(N)c1=O` yielded an IC50 of 6.02 µM. For `Cc1ccc(-c2cc3c(nn2)-c2ccccc2C3=O)cc1`, the IC50 was “inactive”. For `CCOc1cc(CNc2ccc(O)cc2)ccc1OCc1ccc(Cl)cc1Cl`, the IC50 was “inactive”. For `O=C1C(Nc2ccc(O)cc2)=C/C(=N/S(=O)(=O)c2cccs2)c2ccccc21`, the IC50 was 1.21 µM. `COc1ccc(C(=O)/C=C/C(=O)N(CC(=O)NC2CCCCC2)Cc2ccc(F)cc2)c(O)c1` showed an IC50 of 2.25 µM. `C/C=C/Cn1c(SCCCc2ccccc2)nc2c1c(=O)[nH]c(=O)n2C` was tested, and the IC50 was > 10 µM (inactive). With `Nc1c(S(=O)(=O)c2ccccc2)c2nc3ccccc3nc2n1/N=C/c1cccc(O)c1` the IC50 was > 10 µM (inactive). For `O=C(CN1C(=O)c2ccccc2S1(=O)=O)c1ccc2c(c1)OCCCO2`, the IC50 was 0.37 µM. In the case of `O=C(NCc1ccccc1Cl)c1ccc(S(=O)(=O)Nc2cccc(C(F)(F)F)c2)cc1`, the IC50 is reported as > 10 µM (inactive). `O=C(Nc1ccc(-c2nc3ccccc3o2)cc1)c1ccc(N2CCOCC2)c([N+](=O)[O-])c1` was tested, and the IC50 was > 10 µM (inactive). `Cc1cccc(/C=N/Nc2ccc3ccccc3n2)c1` was tested, and the IC50 was “inactive”. For `CCCCCc1c(C)nc(NCc2ccccc2)[nH]c1=O`, the IC50 was > 10 µM (inactive). `COc1ccccc1NCC(O)COc1ccc(C(C)(C)C)cc1` (configuration not stated) was tested, and the IC50 was “inactive”. With `Oc1ccc(/C=N/Nc2nc(N3CCCCCC3)nc(N3CCCCCC3)n2)c(O)c1` the IC50 was > 10 µM (inactive). For `CC(CNC(=S)Nc1cc(F)cc(F)c1)CSc1ccc(Cl)cc1` (configuration not stated), the IC50 was > 10 µM (inactive). For `Cc1ccc(C)c(OCc2ccc(C(=O)N3N=C(C(F)F)CC3(O)C(F)F)o2)c1` (configuration not stated), the IC50 was “inactive”. Work on `CN1/C(=C\C=C\C2=[N+](C)c3ccc4ccccc4c3C2(C)C)C(C)(C)c2ccccc21` yielded an IC50 of less than 0.16 µM. For `O=S(=O)(Nc1cc(Sc2ncn[nH]2)c(O)c2ccccc12)c1ccccc1`, the IC50 was “inactive”. In the case of `CC(C)(C)C(=O)Cn1ncc(Br)c(Br)c1=O`, the IC50 is reported as > 10 µM (inactive). In the case of `OC(CNCCc1ccc(C(F)(F)F)cc1)COc1cccc2ccccc12` (configuration not stated), the IC50 is reported as < 0.16 µM (inactive). `C=C1C(=O)O[C@@H]2C[C@@H](C)[C@@H]3C=CC(=O)[C@@]3(C)[C@@H](O)[C@H]12` gave an IC50 of 2.43 µM. With `CC1CCC(n2c(=S)[nH]c3ccccc3c2=O)CC1` (configuration not stated) the IC50 was > 10 µM (inactive). For `COc1ccc(C2=NN(C(=O)c3ccco3)C(c3cc4ccccc4nc3Cl)C2)cc1` (configuration not stated), the IC50 was > 10 µM (inactive). In the case of `COc1ccc(NC(=O)c2cc(-c3cc(C)cc(C)c3O)n[nH]2)cc1Cl`, the IC50 is reported as > 10 µM (inactive). `CC1CCN(S(=O)(=O)c2ccc3c(c2)C(=NO)c2cc(S(=O)(=O)N4CCC(C)CC4)ccc2-3)CC1` showed an IC50 of 1.27 µM. For `CCn1c(C)nc2cc(-c3nc4n(n3)Cc3ccccc3-4)ccc21`, the IC50 was < 0.16 µM (inactive). With `COc1cc(/C=C/C(=O)OC2CC3CCC2(C)C3(C)C)ccc1O` (configuration not stated) the IC50 was > 10 µM (inactive). For `Clc1ccc2c(N/N=C/c3ccc(Br)cc3)ccnc2c1`, the IC50 was > 10 µM (inactive). In the case of `CCCCCCCCCCCCCCCCn1cc[n+](C)c1`, the IC50 is reported as “inactive”. With `COc1ccc(N=c2oc3ccc(OC)cc3cc2-c2nc3ccccc3[nH]2)cc1` the IC50 was “inactive”. For `COc1ccc([C@H]2Oc3cc(O)cc(O)c3C(=O)C2[C@@H]2C(=O)c3c(O)cc(O)cc3O[C@@H]2c2ccc(OC)cc2)cc1` (some centres not stated), the IC50 was > 10 µM (inactive). In the case of `CCOc1ccc(-n2c(SCC(=O)Nc3ccc(Br)cc3)nc3n[nH]c(C)c3c2=N)cc1`, the IC50 is reported as > 10 µM (inactive). With `CCCCn1c(N2CCC(Cc3ccccc3)CC2)nc2c1c(=O)[nH]c(=O)n2C` the IC50 was > 10 µM (inactive). With `CCn1c(C)nc2cc(-c3nnc(-c4c(-c5ccccc5)noc4C)o3)ccc21` the IC50 was > 10 µM (inactive). In the case of `CCCC(=O)NC(NC(=S)Nc1ccc(N=Nc2ccccc2)cc1)C(Cl)(Cl)Cl` (configuration not stated), the IC50 is reported as > 10 µM (inactive). `CC1CCN(C(=O)/C(=C/c2ccccc2Cl)c2ccccc2)CC1` was tested, and the IC50 was “inactive”. In the case of `CC1(c2ccccc2)CC(C)(C)N2C(=O)C3(C(C#N)=C(N)Oc4cc(O)ccc43)c3cccc1c32` (configuration not stated), the IC50 is reported as > 10 µM (inactive). For `C=C(C)Cn1c(N2CCC(Cc3ccccc3)CC2)nc2c1c(=O)[nH]c(=O)n2C`, the IC50 was > 10 µM (inactive). In the case of `COc1ccc(NC(=O)/C(Cl)=C(/Cl)S(=O)(=O)Cc2ccc(C)cc2)cn1`, the IC50 is reported as “inactive”. `Nc1ccc(SC(F)(F)F)cc1C(=O)c1ccccc1` was tested, and the IC50 was “inactive”. In the case of `O=C(Nc1ccc(Cl)cc1)Nc1ccc(N2CCCC2)c(S(=O)(=O)Nc2ccccc2Cl)c1`, the IC50 is reported as “inactive”. In the case of `CCOC(=O)N=Nc1c2ccccc2c2nc3no[nH]c3nc12`, the IC50 is reported as “inactive”. In the case of `CCCCC(CC)C(=O)Oc1ccc(O)c(C(C)(C)C)c1` (configuration not stated), the IC50 is reported as “inactive”. For `Cc1cccc(NC(=O)CSc2nc(C)c(CC(=O)c3ccc(Br)cc3)c(C)c2C#N)c1C`, the IC50 was “inactive”. With `Cc1nc(Nc2nc(CSc3nc4ccccc4[nH]3)cc(=O)[nH]2)nc2ccccc12` the IC50 was > 10 µM (inactive). `COc1cc(/C=C(\C#N)c2nc3ccccc3[nH]2)cc(Br)c1OCc1ccc(F)cc1` was tested, and the IC50 was “inactive”. With `O=c1[nH]c(NNC(=S)NC2CCCCC2)nc2c1C1(CCCC1)Cc1ccccc1-2` the IC50 was > 10 µM (inactive). With `COC(=O)c1sc(-c2ccc(C(C)(C)C)cc2)cc1NC(=O)c1ccccc1C(=O)O` the IC50 was > 10 µM (inactive). `CCc1ccc(/C=C2\SC(=S)N(CCCC(=O)Nc3ccccn3)C2=O)cc1` was tested, and the IC50 was less than 0.16 µM. `CC[C@@H](C)[C@H](NC(=O)OC(C)(C)C)c1nnc(S(=O)(=O)Cc2cc(C)ccc2C)o1` gave an IC50 of 3.76 µM. `CCOC(=O)C(NC(=O)Nc1cccc(C)n1)(OCC(F)(F)F)C(F)(F)F` (configuration not stated) was tested, and the IC50 was “inactive”. With `Cc1ccc(NC(=O)c2cc3ccccc3oc2=O)cc1S(=O)(=O)N(C)C` the IC50 was less than 0.16 µM. In the case of `CC(C)(C)OC(=O)NCCc1nnc(S(=O)(=O)Cc2ccc(Cl)cc2Cl)o1`, the IC50 is reported as 4.44 µM. Compound `CCN1/C(=C/C=C/C=C/c2sc3ccccc3[n+]2CC)Sc2ccccc21` has an IC50 of 2.4 µM. Work on `CC1C/C(=C/c2ccccn2)C(=O)/C(=C/c2ccccn2)C1` (configuration not stated) yielded an IC50 of 2.68 µM. For `CC(C)(C)c1ccc(C(=O)NC(=S)NNC(=O)c2cccs2)cc1`, the IC50 was > 10 µM (inactive). For `CCOC(=O)c1c(C(C)(C)C)oc2ccc(O)cc12`, the IC50 was > 10 µM (inactive). With `CCCCCCn1c(CN2CCCC(C)C2)nc2c1c(=O)n(C)c(=O)n2C` (configuration not stated) the IC50 was > 10 µM (inactive). `O=C(CCl)Nc1cc(-c2ccccc2)nn1-c1ccccc1` was tested, and the IC50 was “inactive”. In the case of `O=C(c1ccco1)N1CCN(c2c(-c3ccccc3)c3cc(Cl)ccc3[nH]c2=O)CC1`, the IC50 is reported as > 10 µM (inactive). `Cc1ccccc1N1CCN(C(=O)c2ccc(Oc3ccc(C(F)(F)F)cn3)cc2)CC1` showed an IC50 of 2.48 µM. `OC(COCC(F)(F)C(F)(F)C(F)(F)C(F)F)Cn1c2ccccc2c2ccccc21` (configuration not stated) was tested, and the IC50 was “inactive”. For `O=c1c(Cl)c(Cl)cnn1Cc1nnc(-c2ccccc2Br)o1`, the IC50 was “inactive”. `Cc1cc(C)c(S(=O)(=O)c2ccccc2)c(OC(=O)c2cc(F)c(F)cc2Cl)n1` was tested, and the IC50 was “inactive”.
